Source: US10246455B2, “Histone deacetylase inhibitors” (Taipei Medical University, priority 2014, dated 2019)

Legend:
[1] = molecular target: HDAC 1 (Homo sapiens, UniProt Q13547); assay: Deacetylase enzyme assay (fluorescence release): HDAC1; type: biochemical; conditions: 24-hour study
Text: (§1) Proteins from cells were extracted and subjected to the western blotting analysis. β-Actin was used as an internal control. The deacetylase enzyme assay was based on a homogeneous fluorescence release assay. […] After fluorophore from the deacetylated substrates, fluorescent signal was detected.

[2] = molecular target: HDAC2 (Homo sapiens, UniProt Q92769); assay: Deacetylase enzyme assay (fluorescence release): HDAC2; type: biochemical; conditions: 24-hour study
Text: as §1

[3] = system: histone and α-tubulin acetylation in human BJAB B cell lymphoma; assay: Western blot: acetylation in BJAB cells; type: cell-based
Description: More specifically, cells in the logarithmic phase were initially seeded at a density of 1×10^6 in 100 mm^2 dishes. […] Briefly, cells were lysed with the cell lysis reagent CelLytic™ M (Sigma-Aldrich) containing 1 mM DTT, 1 mM PMSF and protease inhibitors for whole-cell lysate preparation. Equal amounts of lysate (on a protein basis) were then differentiated using the SDS-PAGE, blotted on PVDF membranes, conjugated with various specific primary antibodies, and then probed with appropriate secondary antibodies. The immunoreactive bands were detected using the ECL method and visualized on Kodak Bio-MAX MR film.
as §1

[4] = system: WI-38 (normal: lung); assay: IC50 against cell lines: WI-38; conditions: Homo sapiens, WI-38, read-out: IC50 ± SD against human cancer cell lines
[5] = system: Detroit551 (normal: fibroblast); assay: IC50 against cell lines: Detroit551; conditions: Homo sapiens, Detroit 551, read-out: IC50 ± SD against human cancer cell lines
[6] = system: OECM-1 (oral carcinoma); assay: IC50 against human cancer cell lines: OECM-1; conditions: OECM1, read-out: IC50 ± SD against human cancer cell lines
[7] = system: LNCaP-R2 (prostate carcinoma); assay: IC50 against human cancer cell lines: LNCaP-R2; conditions: read-out: IC50 ± SD against human cancer cell lines
[8] = system: LNCaP-104 (prostate carcinoma); assay: IC50 against human cancer cell lines: LNCaP-104; conditions: read-out: IC50 ± SD against human cancer cell lines
[9] = system: HDAC1-10; assay: SDS-PAGE and western blot analysis: HDAC1-10 in PC3 cells; type: cell-based, human; conditions: 48 hours
Description: More specifically, cells in the logarithmic phase were initially seeded at a density of 1×10^6 in 100 mm^2 dishes. […] IC50 indicia of compound in vitro potency) for the indicated times (i.e., 24 and 48 hours), adherent cells were collected for protein extract preparation. Briefly, cells were lysed with the cell lysis reagent CelLytic™ M (Sigma-Aldrich) containing 1 mM DTT, 1 mM PMSF and protease inhibitors for whole-cell lysate preparation. Equal amounts of lysate (on a protein basis) were then differentiated using the SDS-PAGE, blotted on PVDF membranes, conjugated with various specific primary antibodies, and then probed with appropriate secondary antibodies. The immunoreactive bands were detected using the ECL method and visualized on Kodak Bio-MAX MR film. Proteins from cells were extracted and subjected to the western blotting analysis. β-Actin was used as an internal control. The deacetylase enzyme assay was based on a homogeneous fluorescence release assay. […] After fluorophore from the deacetylated substrates, fluorescent signal was detected.

[10] = system: human glioblastoma (U87MG or GBM8401) cells; assay: Cell viability in human glioblastoma in vitro (MTT); type: cell-based; conditions: U-87 MG, U87MG or GBM8401, 30 uM, read-out: reduction of the cell viability
Description: U87MG human glioblastoma cell line was treated with Compound 7 and analyzed following the procedure described below.
Cell viability was assessed by an MTT assay. Briefly, cells were incubated with 0.25 mg/mL MTT (Sigma) at 37° C. for 1 hour and the MTT fomazan were measured spectrophotometrically (μQuant, Bio-Tek) at 595 nm after dissolution of the crystals in DMSO.

[11] = system: HDACs (p21, p27, histone, and α-tubulin acetylation) in the PC3 xenograft model; assay: In vivo HDAC inhibitory assay, PC3 xenograft; conditions: 25 mg/kg, oral, PC3 xenograft mice
Description: Subcutaneous inoculation of 5×10^6 PC3 cells in specific pathogen-free male athymic mice (strain BALB/cAnN.Cg-Foxn1nu/CrlNarl) from the National Laboratory Animal Center, Taiwan, was applied. The mice were subsequently fed under specific pathogen-free conditions and provided with sterile water and food. […] Tumor samples were obtained and frozen in liquid nitrogen before storage in −80° C. Tumor proteins were extracted and subjected to the Western blotting analysis. β-Actin was used as an internal control.

[12] = system: human colorectal HCT116 xenograft; assay: In vivo antitumor activity assay, HCT116 xenograft; conditions: for inhibition of human colorectal HCT116 xenograft growth: day 22 after the first dosing
Text: The antitumor effect of the two test compounds were examined in mice xenografted with human PC3 prostate cancer cells or HCT116 colorectal cells.
Five million PC3 cells were subcutaneously inoculated into specific pathogen-free male athymic mice (strain BALB/cAnN.Cg-Foxn1nu/CrlNarl) from the National Laboratory Animal Center, Taiwan. Mice were subsequently fed under specific pathogen-free conditions and provided with sterile water and food. When the tumor volume reached 150 to 200 mm^3, mice were assigned to groups randomly and treated with vehicle control or Compound 7 or 5b at 25/50/100 mg/kg. The compound was administered once a day, 5 days/week for 2 weeks (n=6) by oral administration. Tumor volume and body weight change were measured twice a week. At the end of the experiments (day 25 after first dosing), animals were euthanized in a CO2-containing chamber, and the tumors were collected and fixed in formaldehyde. The terminal deoxynucleotidyl transferase-mediated dUTP nick end labeling assay (TUNEL) was conducted for apoptosis detection. Tumor tissue sections were analyzed using a FITC In Situ Cell death detection kit (Roche) and fluorescence microscopy. Tissue treated with DNase was used as the positive control. Green fluorescence labeled nucleus indicates the induction of DNA fragmentation.

[13] = system: A549 (non-small-cell lung carcinoma); assay: IC50 in human cancer cell lines (inhibiting HDAC): A549; conditions: Homo sapiens, A549, read-out: IC50, inhibiting HDAC in human cancer cell lines
[14] = system: MKN-45 (gastric carcinoma); assay: IC50 in human cancer cell lines (inhibiting HDAC): MKN-45; conditions: MKN-45, read-out: IC50, inhibiting HDAC in human cancer cell lines
Description: More specifically, the IC50 values of test compounds were determined by carrying out a fluorimetric histone deacetylase assay following the manufacturer's instructions. For a pan-HDAC assay, HeLa nuclear extracts were used as a source of histone deacetylase (BioVision Inc.). Histone deacetylase isomer inhibition assays were conducted using purified recombinant histone deacetylase proteins of the various isomers (BPS Bioscience Inc.). Reactions were performed in 0.1 mol/L KCl, 20 mmol/L HEPES/NaOH at pH 7.9, 20% glycerol, 0.2 mmol/L DTA, 0.5 mmol/L DTT, and 0.5 mmol/L phenylmethylsulfonylfluoride. […] Reactions were carried out in triplicate for each test compound. Each point represented the mean±SD of replicates.

HDAC2, sequence (Q92769 whole entry, species assumed): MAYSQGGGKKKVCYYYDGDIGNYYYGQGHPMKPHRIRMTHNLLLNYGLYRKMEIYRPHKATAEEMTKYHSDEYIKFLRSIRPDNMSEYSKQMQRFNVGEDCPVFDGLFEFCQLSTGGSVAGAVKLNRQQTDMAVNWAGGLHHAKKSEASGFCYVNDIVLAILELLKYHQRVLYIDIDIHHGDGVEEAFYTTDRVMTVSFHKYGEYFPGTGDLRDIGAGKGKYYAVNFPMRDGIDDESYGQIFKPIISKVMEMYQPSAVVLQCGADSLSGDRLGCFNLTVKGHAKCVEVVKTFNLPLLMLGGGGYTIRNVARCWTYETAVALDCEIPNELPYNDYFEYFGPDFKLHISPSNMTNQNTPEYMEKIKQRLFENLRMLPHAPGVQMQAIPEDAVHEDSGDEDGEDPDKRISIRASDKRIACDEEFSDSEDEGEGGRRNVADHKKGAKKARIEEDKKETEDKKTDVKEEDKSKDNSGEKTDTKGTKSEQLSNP
HDAC 1, sequence (Q13547 whole entry, species assumed): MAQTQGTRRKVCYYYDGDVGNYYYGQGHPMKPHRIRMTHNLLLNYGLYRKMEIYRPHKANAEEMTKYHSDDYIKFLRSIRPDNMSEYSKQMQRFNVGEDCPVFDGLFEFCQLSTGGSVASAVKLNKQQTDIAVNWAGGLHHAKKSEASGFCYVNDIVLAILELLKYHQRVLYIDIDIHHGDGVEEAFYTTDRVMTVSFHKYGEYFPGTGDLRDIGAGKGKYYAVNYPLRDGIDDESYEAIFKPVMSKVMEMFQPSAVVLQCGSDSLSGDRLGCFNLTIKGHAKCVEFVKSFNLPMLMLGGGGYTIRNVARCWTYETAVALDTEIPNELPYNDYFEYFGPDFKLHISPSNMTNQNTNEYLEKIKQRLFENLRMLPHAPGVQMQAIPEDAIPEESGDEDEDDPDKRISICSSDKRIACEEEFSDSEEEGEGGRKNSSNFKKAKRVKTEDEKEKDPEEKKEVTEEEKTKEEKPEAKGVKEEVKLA

Row | SMILES | concentration inducing inhibition of HDAC 1 [1] [nM] | concentration inducing inhibition of HDAC2 [2] [nM] | histone and α-tubulin acetylation [3] | IC50 [4] [nM] | IC50 [5] [nM] | IC50 [6] [nM] | IC50 [7] [nM] | IC50 [8] [nM] | inhibition of HDAC1-10 activities in PC3 cells [9] | cytotoxicity at 30 µM [10] [%] | inhibiting HDACs in vivo (p21, p27, histone, and α-tubulin acetylation) [11] | inhibition of human colorectal HCT116 xenograft growth ([12]; 25 mg/kg) | inhibition of human colorectal HCT116 xenograft growth ([12]; 50 mg/kg) | inhibition of human colorectal HCT116 xenograft growth ([12]; 100 mg/kg) | body weight change ([12]; HCT116 xenograft mice, 25, 50 and 100 mg/kg) | IC50 [13] [nM] | IC50 [14] [nM]
1 | COc1ccc(S(=O)(=O)N2CCc3cc(/C=C/C(=O)NO)cnc32)cc1 [Compound 5b, (E)-N-hydroxy-3-(1-(4-methoxyphenylsulfonyl)-2,3-dihydro-1H-pyrrolo[2,3-b]pyridin-5-yl)acrylamide] | ≤ 50 | ≤ 50 | induced histone and α-tubulin acetylation | 272 ± 52.3 | 707 ± 64.7 | 384 ± 72.1 | 100 ± 40 | 180 ± 70 |  |  |  |  |  |  |  |  | 
2 | O=C(/C=C/c1cccc(S(=O)(=O)n2ccc3cccnc32)c1)NO [Compound 7, (E)-3-(3-(1H-Pyrrolo[2,3-b]pyridin-1-ylsulfonyl)phenyl)-N-hydroxyacrylamide] |  |  |  |  |  |  |  |  | inhibited HDAC1-10 activities in PC3 cells in a concentration-dependent manner | ~70 | effective | 50-60% | 50-60% | 50-60% | without causing much body weight change | 1330 ± 190 | 2510 ± 810
